What follows are compounds tested on 697 (assay: selective drug sensitivity score (sDSS, relative to normal bone marrow) (sDSS (score)); higher = more potent and effective on the cell line relative to normal bone marrow cells). Conditions: 72 h.
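Also: ALL cell lines in 384-well plates, five doses spanning 10,000-fold, each plate scaled between vehicle and 100 µmol/L benzalkonium chloride controls, sDSS an adapted area-under-curve metric.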

Going from NCCNc1ccc(NCCN)c2c1C(=O)c1ccncc1C2=O [Pixantrone] (top concentration 10000 nM) to CCCS(=O)(=O)Nc1ccc(F)c(C(=O)c2c[nH]c3ncc(-c4ccc(Cl)cc4)cc23)c1F [Vemurafenib] (top concentration 10000 nM), the “selective drug sensitivity score” value rises from -0.36 to 5.16.

Compared with c1cc(CN2CCCNCCNCCCNCC2)ccc1CN1CCCNCCNCCCNCC1 [Plerixafor] (top concentration 10000 nM), O=C(c1ccc(C(=O)N2CCC(N3CCCC3)CC2)c(Nc2ccccc2)c1)N1CCC(N2CCCC2)CC1 [UNC1215] (top concentration 10000 nM) is lower in “selective drug sensitivity score” value: 0.7 for the first, 0 for the second.

Going from O=C(c1ccc(OCCN2CCCCC2)cc1)c1c(-c2ccc(O)cc2)sc2cc(O)ccc12 [Raloxifene] (top concentration 10000 nM) to COC(=O)c1ccc2c(c1)[nH]c1ncnc(NCCCN3CCCCC3)c12 [UM729] (top concentration 10000 nM), the “selective drug sensitivity score” value rises from -0.28 to 1.64.

Compared with CN(C)C(=O)c1cc2cnc(Nc3ccc(N4CCNCC4)cn3)nc2n1C1CCCC1 [Ribociclib] (top concentration 10000 nM), Cc1cc(Nc2cc(N3CCN(C)CC3)nc(Sc3ccc(NC(=O)C4CC4)cc3)n2)n[nH]1 [Tozasertib] (top concentration 10000 nM) is higher in “selective drug sensitivity score” value: 8.18 for the first, 23.2 for the second.

First: CN1CCN(CCOc2cc(OC3CCOCC3)c3c(Nc4c(Cl)ccc5c4OCO5)ncnc3c2)CC1 [Saracatinib] (top concentration 10000 nM)
Second: COc1cc2c(NC3CCN(C(C)C)CC3)nc(N3CCC(F)(F)CC3)nc2cc1OCCCN1CCCC1 [UNC0642] (top concentration 10000 nM)
The “selective drug sensitivity score” value of the first is higher: 4.28 for the first, 0.76 for the second.

First: C=CC(=O)Nc1cccc(Nc2nc(Nc3ccc(OCCOC)cc3)ncc2F)c1 [Spebrutinib] (top concentration 1000 nM)
Second: CNC(=O)c1cc(COc2nnc(Nc3ccc(Cl)cc3)c3ccoc23)ccn1 [Telatinib] (top concentration 10000 nM)
The “selective drug sensitivity score” value of the first is higher: 1.94 for the first, 1.6 for the second.

Going from C[C@@H]1CN(Cc2ccc(F)cc2)[C@@H](C)CN1C(=O)c1cc2c(C(=O)C(=O)N(C)C)cn(C)c2cc1Cl [Talmapimod] (top concentration 10000 nM) to O=c1sn(-c2cccc3ccccc23)c(=O)n1Cc1ccccc1 [Tideglusib] (top concentration 3000 nM), the “selective drug sensitivity score” value falls from 1 to -0.3.

Going from C[C@@H](C(=O)O)c1ccc(-c2ccccc2)c(F)c1 [Tarenflurbil] (top concentration 10000 nM) to Clc1ccc(Nc2nnc(Cc3ccncc3)c3ccccc23)cc1 [Vatalanib] (top concentration 10000 nM), the “selective drug sensitivity score” value rises from -0.16 to 0.

First: COc1cc2nccc(Oc3ccc(NC(=O)Nc4cc(C)on4)c(Cl)c3)c2cc1OC [Tivozanib] (top concentration 10000 nM)
Second: CC1=C(/C=C/C(C)=C/C=C/C(C)=C/C(=O)O)C(C)(C)CCC1 [Tretinoin] (top concentration 10000 nM)
The “selective drug sensitivity score” value of the first is higher: 5.16 for the first, -1.1 for the second.

With CCCC(CCC)C(=O)O [Valproic_acid] (top concentration 1000000 nM) the “selective drug sensitivity score” value was 0.

What follows are compounds tested on ALL-SIL in the same assay as above. Conditions: 72 h.

First: NCCNc1ccc(NCCN)c2c1C(=O)c1ccncc1C2=O [Pixantrone] (top concentration 10000 nM)
Second: CCCS(=O)(=O)Nc1ccc(F)c(C(=O)c2c[nH]c3ncc(-c4ccc(Cl)cc4)cc23)c1F [Vemurafenib] (top concentration 10000 nM)
The “selective drug sensitivity score” value of the first is lower: -2.76 for the first, 3.06 for the second.

First: c1cc(CN2CCCNCCNCCCNCC2)ccc1CN1CCCNCCNCCCNCC1 [Plerixafor] (top concentration 10000 nM)
Second: O=C(c1ccc(C(=O)N2CCC(N3CCCC3)CC2)c(Nc2ccccc2)c1)N1CCC(N2CCCC2)CC1 [UNC1215] (top concentration 10000 nM)
The “selective drug sensitivity score” value of the first is lower: 0 for the first, 0.4 for the second.

Going from O=C(c1ccc(OCCN2CCCCC2)cc1)c1c(-c2ccc(O)cc2)sc2cc(O)ccc12 [Raloxifene] (top concentration 10000 nM) to COC(=O)c1ccc2c(c1)[nH]c1ncnc(NCCCN3CCCCC3)c12 [UM729] (top concentration 10000 nM), the “selective drug sensitivity score” value falls from 1.72 to 1.44.

Compared with CN(C)C(=O)c1cc2cnc(Nc3ccc(N4CCNCC4)cn3)nc2n1C1CCCC1 [Ribociclib] (top concentration 10000 nM), Cc1cc(Nc2cc(N3CCN(C)CC3)nc(Sc3ccc(NC(=O)C4CC4)cc3)n2)n[nH]1 [Tozasertib] (top concentration 10000 nM) is higher in “selective drug sensitivity score” value: -1.12 for the first, 22.4 for the second.

Compared with CN1CCN(CCOc2cc(OC3CCOCC3)c3c(Nc4c(Cl)ccc5c4OCO5)ncnc3c2)CC1 [Saracatinib] (top concentration 10000 nM), COc1cc2c(NC3CCN(C(C)C)CC3)nc(N3CCC(F)(F)CC3)nc2cc1OCCCN1CCCC1 [UNC0642] (top concentration 10000 nM) is lower in “selective drug sensitivity score” value: 17.7 for the first, -0.04 for the second.

First: C=CC(=O)Nc1cccc(Nc2nc(Nc3ccc(OCCOC)cc3)ncc2F)c1 [Spebrutinib] (top concentration 1000 nM)
Second: CNC(=O)c1cc(COc2nnc(Nc3ccc(Cl)cc3)c3ccoc23)ccn1 [Telatinib] (top concentration 10000 nM)
The “selective drug sensitivity score” value of the first is higher: 1.64 for the first, 0 for the second.

Going from C[C@@H]1CN(Cc2ccc(F)cc2)[C@@H](C)CN1C(=O)c1cc2c(C(=O)C(=O)N(C)C)cn(C)c2cc1Cl [Talmapimod] (top concentration 10000 nM) to O=c1sn(-c2cccc3ccccc23)c(=O)n1Cc1ccccc1 [Tideglusib] (top concentration 3000 nM), the “selective drug sensitivity score” value rises from 2.1 to 3.7.

Going from C[C@@H](C(=O)O)c1ccc(-c2ccccc2)c(F)c1 [Tarenflurbil] (top concentration 10000 nM) to Clc1ccc(Nc2nnc(Cc3ccncc3)c3ccccc23)cc1 [Vatalanib] (top concentration 10000 nM), the “selective drug sensitivity score” value rises from -0.16 to 0.1.

First: COc1cc2nccc(Oc3ccc(NC(=O)Nc4cc(C)on4)c(Cl)c3)c2cc1OC [Tivozanib] (top concentration 10000 nM)
Second: CC1=C(/C=C/C(C)=C/C=C/C(C)=C/C(=O)O)C(C)(C)CCC1 [Tretinoin] (top concentration 10000 nM)
The “selective drug sensitivity score” value of the first is higher: 27 for the first, -2.4 for the second.

In the case of CCCC(CCC)C(=O)O [Valproic_acid] (top concentration 1000000 nM), the “selective drug sensitivity score” value is reported as 0.

The compounds below were run on CCRF-CEM in the same assay as above. Conditions: 72 h.

First: NCCNc1ccc(NCCN)c2c1C(=O)c1ccncc1C2=O [Pixantrone] (top concentration 10000 nM)
Second: C=CC(=O)Nc1cccc(Nc2nc(Nc3ccc(OCCOC)cc3)ncc2F)c1 [Spebrutinib] (top concentration 1000 nM)
The “selective drug sensitivity score” value of the first is lower: -2.06 for the first, 1.64 for the second.

Compared with c1cc(CN2CCCNCCNCCCNCC2)ccc1CN1CCCNCCNCCCNCC1 [Plerixafor] (top concentration 10000 nM), CN(C)C(=O)c1cc2cnc(Nc3ccc(N4CCNCC4)cn3)nc2n1C1CCCC1 [Ribociclib] (top concentration 10000 nM) is higher in “selective drug sensitivity score” value: 0 for the first, 3.08 for the second.

First: O=C(c1ccc(OCCN2CCCCC2)cc1)c1c(-c2ccc(O)cc2)sc2cc(O)ccc12 [Raloxifene] (top concentration 10000 nM)
Second: CN1CCN(CCOc2cc(OC3CCOCC3)c3c(Nc4c(Cl)ccc5c4OCO5)ncnc3c2)CC1 [Saracatinib] (top concentration 10000 nM)
The “selective drug sensitivity score” value of the first is higher: 1.42 for the first, -1.52 for the second.

C[C@@H]1CN(Cc2ccc(F)cc2)[C@@H](C)CN1C(=O)c1cc2c(C(=O)C(=O)N(C)C)cn(C)c2cc1Cl [Talmapimod] (top concentration 10000 nM) and CNC(=O)c1cc(COc2nnc(Nc3ccc(Cl)cc3)c3ccoc23)ccn1 [Telatinib] (top concentration 10000 nM) are the same in “selective drug sensitivity score” value: 0 for the first, 0 for the second.

C[C@@H](C(=O)O)c1ccc(-c2ccccc2)c(F)c1 [Tarenflurbil] (top concentration 10000 nM) was tested, and the “selective drug sensitivity score” value was -0.16.

From the supplement of paper PMC8967900
